The assay has as its system nude mice, LOX melanoma ip, survival T/C. Briefly: NCI In Vivo Anticancer Drug Screen. Data for tumor model Human Amelanotic Melanoma (LOX) (intraperitoneal) in NU/NU BALB/C (nude) mice. The settings on record: endpoint: median survival time, higher = longer survival. The protocol: The antitumor activity of compounds was measured in mice bearing transplantable tumors. Survival or tumor size were measured and the results are expressed as the measurement made in the treated group (T) divided by the measurement made in the vehicle treated control group (C). The tumor model used in this assay is Human Amelanotic Melanoma (LOX) (intraperitoneal) in NU/NU BALB/C (nude) mice

Setting [1] is: dose: 25.0 mg/kg/injection, schedule: Q04DX003 (ip), vehicle: saline.
[2] abbreviates: dose: 50.0 mg/kg/injection, schedule: Q04DX003 (ip), vehicle: saline.
Where [3] appears, read: dose: 100.0 mg/kg/injection, schedule: Q04DX003 (ip), vehicle: saline.
Setting [4] is: dose: 25.0 mg/kg/injection, schedule: Q04DX003 (ip), vehicle: saline with Tween-80.
Where [5] appears, read: dose: 50.0 mg/kg/injection, schedule: Q04DX003 (ip), vehicle: saline with Tween-80.
The mark [6] stands for this setting: dose: 100.0 mg/kg/injection, schedule: Q04DX003 (ip), vehicle: saline with Tween-80.
Where [7] appears, read: dose: 6.25 mg/kg/injection, schedule: Q04DX003 (ip), vehicle: suspension in saline.
Where [8] appears, read: dose: 25.0 mg/kg/injection, schedule: Q04DX003 (ip), vehicle: suspension in saline.
[9] abbreviates: dose: 50.0 mg/kg/injection, schedule: Q04DX003 (ip), vehicle: Klucel (hydroxypropylcellulose) (HPC).
Where [10] appears, read: dose: 100.0 mg/kg/injection, schedule: Q04DX003 (ip), vehicle: Klucel (hydroxypropylcellulose) (HPC).
The mark [11] stands for this setting: dose: 200.0 mg/kg/injection, schedule: Q04DX003 (ip), vehicle: Klucel (hydroxypropylcellulose) (HPC).

“And” between values parts separate entries of the source, which are not always exact repeats. Identical values can stand only once. Inconclusive results and toxic doses are left out.

For `CC[C@]1(O)C[C@H]2CN(CCc3c([nH]c4ccccc34)[C@@](C(=O)OC)(c3cc4c(cc3OC)N(C)[C@H]3[C@@](O)(C(=O)OC)[C@H](OC(C)=O)[C@]5(CC)C=CCN6CC[C@]43[C@@H]65)C2)C1`, the T/C is 107 % of control (dose: 0.44 mg/kg/injection, schedule: Q04DX003 (iv), vehicle: saline); 110 % of control and 203 % of control (dose: 0.67 mg/kg/injection, schedule: Q04DX003 (ip), vehicle: saline); 112 % of control (dose: 0.67 mg/kg/injection, schedule: Q04DX003 (iv), vehicle: saline); 123 % of control and 203 % of control (dose: 1.7 mg/kg/injection, schedule: Q04DX003 (ip), vehicle: saline); 188 % of control (dose: 1.7 mg/kg/injection, schedule: Q04DX003 (iv), vehicle: saline).

As to `CN=NN(C)C(=O)NC`, the T/C reads like this: under setting [1], 154 % of control; under setting [2], 188 % of control; under setting [3], 230 % of control.

On to `C=C(c1ccc(OC)c(OC)c1)c1nccc2cc(OC)c(OC)cc12`, for which the T/C reads like this: (dose: 75.0 mg/kg/injection, schedule: Q04DX003 (ip), vehicle: Klucel (hydroxypropylcellulose) (HPC)) 88 % of control; (dose: 150.0 mg/kg/injection, schedule: Q04DX003 (ip), vehicle: Klucel (hydroxypropylcellulose) (HPC)) 99 % of control; (dose: 300.0 mg/kg/injection, schedule: Q04DX003 (ip), vehicle: Klucel (hydroxypropylcellulose) (HPC)) 96 % of control.

As for `O=[N+]([O-])c1ccc(N(CCO)CCO)c2c1no[n+]2[O-]`, the T/C was 99 % of control (dose: 6.25 mg/kg/injection, schedule: Q04DX003 (ip), vehicle: saline with Tween-80); 106 % of control (dose: 12.5 mg/kg/injection, schedule: Q04DX003 (ip), vehicle: saline with Tween-80); 111 % of control under setting [4]; 93 % of control under setting [5]; 115 % of control under setting [6].

In the case of `C/C=C/C=C/c1cc2cc3c(c(O)c2c(=O)[nH]1)C1(CC3)C(O)=c2c(=O)c3c(=O)cc(OC)c(=O)c=3c(=O)c2=C1O` (stereo not drawn), the T/C runs as follows: (dose: 1.0 mg/kg/injection, schedule: Q04DX003 (ip), vehicle: water) 155 % of control; (dose: 1.8 mg/kg/injection, schedule: Q04DX003 (ip), vehicle: water) 155 % of control; (dose: 3.0 mg/kg/injection, schedule: Q04DX003 (ip), vehicle: water) 169 % of control and 177 % of control; (dose: 5.0 mg/kg/injection, schedule: Q04DX003 (ip), vehicle: water) 177 % of control; (dose: 8.3 mg/kg/injection, schedule: Q04DX003 (ip), vehicle: water) 189 % of control.

For `CNC(=O)c1cccc2c(Nc3ccc(NS(C)(=O)=O)cc3OC)c3cccc(C)c3nc12`, the T/C reads like this: under setting [7], 121 % of control; (dose: 15.0 mg/kg/injection, schedule: Q04DX003 (ip), vehicle: suspension in saline) 158 % of control; under setting [8], 178 % of control; (dose: 41.66 mg/kg/injection, schedule: Q04DX003 (ip), vehicle: suspension in saline) 170 % of control; (dose: 69.44 mg/kg/injection, schedule: Q04DX003 (ip), vehicle: suspension in saline) 161 % of control.

`COc1cc2c(c(OC)c1OC)-c1cccc(=O)cc1C(NC(C)=O)CC2` (stereo not drawn): the T/C is 104 % of control (dose: 12.5 mg/kg/injection, schedule: Q04DX003 (ip), vehicle: saline); 122 % of control under setting [1]; 110 % of control under setting [2]; 106 % of control under setting [3]; 103 % of control (dose: 200.0 mg/kg/injection, schedule: Q04DX003 (ip), vehicle: saline).

With `COc1cc(C)c(C2NC(=O)c3ccccc3N2)cc1C` (stereo not drawn), the T/C (dose: 600.0 mg/kg/injection, schedule: Q04DX003 (ip), vehicle: Klucel (hydroxypropylcellulose) (HPC)) was 166 % of control and the T/C (dose: 1200.0 mg/kg/injection, schedule: Q04DX003 (ip), vehicle: Klucel (hydroxypropylcellulose) (HPC)) is 192 % of control.

With `O=C1C2=C(Nc3cc([N+](=O)[O-])ccc3N2)OC1c1ccccn1` (stereo not drawn), the T/C by setting is: (dose: 25.0 mg/kg/injection, schedule: Q04DX003 (ip), vehicle: Klucel (hydroxypropylcellulose) (HPC)) 99 % of control; under setting [9], 99 % of control; under setting [10], 110 % of control; under setting [11], 110 % of control.

As to `COc1cc2c(cc1OC)[C@@H]1C(=O)c3ccc4c(c3O[C@@H]1CO2)C[C@H](C(C)C)O4`, the T/C runs as follows: (dose: 18.75 mg/kg/injection, schedule: Q04DX003 (ip), vehicle: Klucel (hydroxypropylcellulose) (HPC)) 113 % of control; (dose: 37.5 mg/kg/injection, schedule: Q04DX003 (ip), vehicle: Klucel (hydroxypropylcellulose) (HPC)) 110 % of control.

For `O=S(=O)(O)c1cc(N=C=S)ccc1/C=C/c1ccc(N=C=S)cc1S(=O)(=O)O`, the T/C is 103 % of control (dose: 3.75 mg/kg/injection, schedule: Q04DX003 (ip), vehicle: saline); 104 % of control (dose: 7.5 mg/kg/injection, schedule: Q04DX003 (ip), vehicle: saline); 90 % of control (dose: 15.0 mg/kg/injection, schedule: Q04DX003 (ip), vehicle: saline); 94 % of control (dose: 30.0 mg/kg/injection, schedule: Q04DX003 (ip), vehicle: saline).

For `O=C(NNC(=O)c1cccc(C(=O)NNC(=O)c2ccc(Cl)c(Cl)c2)n1)c1ccc(Cl)c(Cl)c1`, the T/C reads like this: under setting [4], 103 % of control; under setting [5], 119 % of control; (dose: 75.0 mg/kg/injection, schedule: Q04DX003 (ip), vehicle: saline with Tween-80) 104 % of control; under setting [6], 119 % of control; (dose: 150.0 mg/kg/injection, schedule: Q04DX003 (ip), vehicle: saline with Tween-80) 110 % of control; (dose: 200.0 mg/kg/injection, schedule: Q04DX003 (ip), vehicle: saline with Tween-80) 122 % of control. The T/C (dose: 300.0 mg/kg/injection, schedule: Q04DX003 (ip), vehicle: saline with Tween-80) is 204 % of control; the T/C (dose: 400.0 mg/kg/injection, schedule: Q04DX003 (ip), vehicle: saline with Tween-80) is 116 % of control; the T/C (dose: 600.0 mg/kg/injection, schedule: Q04DX003 (ip), vehicle: saline with Tween-80) was 167 % of control; the T/C (dose: 1200.0 mg/kg/injection, schedule: Q04DX003 (ip), vehicle: saline with Tween-80) is 164 % of control.

As to `CC(=O)Nc1ccc(Nc2ccc(C(=C3C=CC(=[N+](C)CCC#N)C=C3)c3ccc(N(C)CCC#N)cc3)cc2)cc1`, the T/C was 101 % of control under setting [7]; 111 % of control (dose: 12.5 mg/kg/injection, schedule: Q04DX003 (ip), vehicle: suspension in saline); 116 % of control under setting [8]; 120 % of control (dose: 30.0 mg/kg/injection, schedule: Q04DX003 (ip), vehicle: suspension in saline); 111 % of control and 121 % of control (dose: 50.0 mg/kg/injection, schedule: Q04DX003 (ip), vehicle: suspension in saline); 110 % of control (dose: 83.0 mg/kg/injection, schedule: Q04DX003 (ip), vehicle: suspension in saline). Further, the T/C (dose: 100.0 mg/kg/injection, schedule: Q04DX003 (ip), vehicle: suspension in saline) was 124 % of control.

As to `CN(C)CN1C(=O)S/C(=C2\C(=O)N(CN(C)C)c3ccccc32)C1=O`, the T/C reads like this: under setting [9], 119 % of control and 101 % of control; under setting [10], 110 % of control and 97 % of control; under setting [11], 108 % of control and 97 % of control.
